Read-outs that look alike come from different tables or passages of the source. Where no end group is shown, it is not given here.
Tests used:
Assay in all cases: Direct-binding FRET assay
[1] = target: T1, CREB3L3 (Homo sapiens, UniProt Q68CJ9); settings: read-out: Kd
T1 construct: made in house
T1 sequence (Q68CJ9 243-306 limits assumed): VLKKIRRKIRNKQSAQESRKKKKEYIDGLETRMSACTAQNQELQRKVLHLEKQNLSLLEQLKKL
Procedure: (§1) The direct binding assay was performed manually in 384-well plates and is similar to a previously described assay. Wells were filled with 20 μL of 1 mM TCEP-HCl. A 4 μM stock of acceptor protein was made fresh in 1 mM TCEP-HCl, and 20 μL was titrated in 2-fold dilutions over the wells. […] The direct-binding FRET data were fit as previously described. Briefly, the Kd of the designed peptide homodimer was experimentally determined and used with previously determined target homodimer Kd values to determine the heterodimer Kd. The homodimer Kd values used for the human bZIPs were from; experiments done by […] et al. used the same protein constructs for the human bZIP proteins, the same buffer conditions, and the same assay. The fitting used a system of ordinary differential equations to describe the concentrations of homo and heterodimers formed by the donor (D) and acceptor (A) as a function of the heterodimer Kd. MATLAB was used to simulate the binding experiment for different Kd values, and the value that gave the best agreement between simulation and experiment was assigned. A minimum 15% change in the donor fluorescence upon titrating the acceptor peptide from 0 to 1000 nM was required for a fit to be attempted. If this minimum was not met, the interaction was classified as “NS” for no signal change. […] These interactions were marked “AS” to indicate anomalous signal. We attributed this to interactions between the peptides, the dyes and the walls of the assay plates at low concentrations. These curves could not be fit, given their unusual shapes at low concentrations of acceptor. For such curves, we removed the first five points and re-fit the data. […] One example of this is increasing concentrations of acceptor causing an increase in donor fluorescence.

[2] = target: T2, CREB3 (Homo sapiens, UniProt O43889); settings: mean or single, read-out: Kd
T2 construct: made in house
T2 sequence (O43889 150-213 limits assumed): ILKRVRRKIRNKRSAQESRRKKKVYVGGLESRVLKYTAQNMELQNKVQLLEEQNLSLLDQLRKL
Procedure: as §1

[3] = target: T3, CREB3L1 (Homo sapiens, UniProt Q96BA8); settings: read-out: Kd
T3 construct: made in house
T3 sequence (Q96BA8 290-353 limits assumed): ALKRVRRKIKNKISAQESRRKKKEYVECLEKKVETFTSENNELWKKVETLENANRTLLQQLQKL
Procedure: as §1

[4] = target: T4, BATF3 (Homo sapiens, UniProt Q9NR55); settings: mean or single, read-out: Kd
T4 construct: made in house
T4 sequence (Q9NR55 35-98 limits assumed): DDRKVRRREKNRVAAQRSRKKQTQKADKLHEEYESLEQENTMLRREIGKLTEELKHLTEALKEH
Procedure: as §1

[5] = target: T5, JUNB (Homo sapiens, UniProt P17275); settings: read-out: Kd
T5 construct: made in house
T5 sequence (P17275 268-331 limits assumed): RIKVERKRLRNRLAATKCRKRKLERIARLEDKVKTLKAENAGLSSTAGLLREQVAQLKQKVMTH
Procedure: as §1

[6] = target: T6, ATF2 (Homo sapiens, UniProt P15336); settings: read-out: Kd
T6 construct: made in house
T6 sequence (P15336 352-415 limits assumed): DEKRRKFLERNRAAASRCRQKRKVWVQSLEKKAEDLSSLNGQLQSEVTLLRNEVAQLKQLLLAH
Procedure: as §1

[7] = target: T7, NFE2L2 (Homo sapiens, UniProt Q16236); settings: read-out: Kd
T7 construct: made in house
T7 sequence (Q16236 497-560 limits assumed): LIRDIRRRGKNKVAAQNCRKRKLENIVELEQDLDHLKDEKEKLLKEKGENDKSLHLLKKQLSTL
Procedure: as §1

[8] = target: T8, BATF2 (Homo sapiens, UniProt Q8N1L9); settings: read-out: Kd
T8 construct: made in house
T8 sequence (Q8N1L9 17-80 limits assumed): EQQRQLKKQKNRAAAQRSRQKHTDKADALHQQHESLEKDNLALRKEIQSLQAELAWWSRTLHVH
Procedure: as §1

[9] = target: T9, BATF (Homo sapiens, UniProt Q16520); settings: read-out: Kd
T9 construct: made in house
T9 sequence (Q16520 26-89 limits assumed): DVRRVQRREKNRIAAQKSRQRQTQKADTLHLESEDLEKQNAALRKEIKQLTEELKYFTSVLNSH
Procedure: as §1

[10] = target: T10, DBP (Homo sapiens, UniProt Q10586); settings: read-out: Kd
T10 construct: made in house
T10 sequence (Q10586 255-318 limits assumed): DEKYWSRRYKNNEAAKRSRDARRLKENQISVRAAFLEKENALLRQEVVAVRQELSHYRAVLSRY
Procedure: as §1

[11] = 4°C, C-terminal fluorescein design as donor, TAMRA target titrated
[12] = 4°C, C-terminal rhodamine design, mean or single
[13] = 4°C, N-terminal rhodamine design, mean or single
[14] = 23°C, C-terminal fluorescein design as donor, TAMRA target titrated
[15] = 23°C, C-terminal rhodamine design, mean or single
[16] = 23°C, N-terminal rhodamine design, mean or single
[17] = 37°C, C-terminal fluorescein design as donor, TAMRA target titrated
[18] = 37°C, C-terminal rhodamine design, mean or single
[19] = 37°C, N-terminal rhodamine design, mean or single
[20] = 4°C, C-terminal rhodamine design
[21] = 4°C, N-terminal rhodamine design
[22] = 23°C, C-terminal rhodamine design
[23] = 23°C, N-terminal rhodamine design
[24] = 37°C, C-terminal rhodamine design
[25] = 37°C, N-terminal rhodamine design
[26] = 23°C, C-terminal rhodamine design, repeat 1
[27] = 37°C, C-terminal rhodamine design, repeat 1

Measured: Kd

NQIKTLRTRLSKLRKDNLQLEKDIANLERKAKDLRAEKEQLEYEL [ATF4-d1]
> 1000 nM: [1]; [11] | [1]; [13] | [1]; [14] | [1]; [15] | [1]; [16] | [1]; [17] | [1]; [18] | [1]; [19] | [2]; [20] | [2]; [21] | [2]; [22] | [2]; [23] | [2]; [25] | [3]; [13] | [3]; [16] | [3]; [18] | [3]; [19] | [4]; [20] | [4]; [21] | [4]; [22] | [4]; [23] | [4]; [24] | [4]; [25] | [5]; [11] | [5]; [12] | [5]; [13] | [5]; [14] | [5]; [15] | [5]; [16] | [5]; [17] | [5]; [18] | [5]; [19] | [6]; [13] | [6]; [14] | [6]; [26] | [6]; [16] | [6]; [19] | [7]; [14] | [7]; [16] | [7]; [17] | [7]; [27] | [7]; 37°C, C-terminal rhodamine design, repeat 2 | [7]; [19] | [8]; [11] | [8]; [12] | [8]; [13] | [8]; [14] | [8]; [15] | [8]; [16] | [8]; [17] | [8]; [18] | [8]; [19] | [9]; [12] | [9]; [14] | [9]; [15] | [9]; [16] | [9]; [17] | [9]; [18] | [9]; [19] | [10]; [13] | [10]; [14] | [10]; [15] | [10]; [16] | [10]; [17] | [10]; [18] | [10]; [19]
> 5000 nM: [1]; [12] | [2]; [24] | [3]; [12] | [6]; [11] | [6]; 4°C, C-terminal rhodamine design, repeat 1 | [6]; [17] | [6]; [27] | [7]; [11] | [7]; [15] | [7]; [26] | [7]; 23°C, C-terminal rhodamine design, repeat 2 | [7]; 23°C, C-terminal rhodamine design, repeat 3 | [7]; 37°C, C-terminal rhodamine design, repeat 3 | [9]; [13] | [10]; [12]
< 200 nM: [3]; [15]
47.9 nM: [7]; [13]

EREAQLENRVAHLKEKNQELKAQNLHLKEALSEAQNRNQELKNDA [XBP1-d1]
> 1000 nM: [1]; [12] | [1]; [13] | [1]; [15] | [1]; [16] | [1]; [18] | [1]; [19] | [2]; [20] | [2]; [21] | [2]; [22] | [2]; [23] | [2]; [24] | [2]; [25] | [3]; [11] | [3]; [12] | [3]; [13] | [3]; [14] | [3]; [15] | [3]; [16] | [3]; [17] | [3]; [18] | [3]; [19] | [4]; [21] | [4]; [22] | [4]; [23] | [4]; [24] | [4]; [25] | [5]; [12] | [5]; [13] | [5]; [15] | [5]; [16] | [5]; [18] | [5]; [19] | [6]; [11] | [6]; [12] | [6]; [13] | [6]; [14] | [6]; [15] | [6]; [16] | [6]; [17] | [6]; [18] | [6]; [19] | [7]; [11] | [7]; [12] | [7]; [13] | [7]; [14] | [7]; [15] | [7]; [16] | [7]; [17] | [7]; [18] | [7]; [19] | [8]; [13] | [8]; [15] | [8]; [16] | [8]; [18] | [8]; [19] | [9]; [13] | [9]; [14] | [9]; [15] | [9]; [16] | [9]; [17] | [9]; [18] | [9]; [19] | [10]; [11] | [10]; [12] | [10]; [13] | [10]; [14] | [10]; [15] | [10]; [16] | [10]; [17] | [10]; [18] | [10]; [19]
< 200 nM: [8]; [12]
> 5000 nM: [4]; [20] | [9]; [11] | [9]; [12]

— PMC4335062, “Data-Driven Prediction and Design of bZIP Coiled-Coil Interactions” (PLoS Computational Biology, 2015)
